# pEC50: −log10 of the molar value.
# Assays:
# PpTRPA1 [1] = target: T1, PpTRPA1 (Patiria pectinifera, UniProt A0A1Y1C7R6); experiment: two-electrode voltage clamp, Xenopus laevis oocytes; format: cell-based
# T1 construct: cRNA in Xenopus laevis oocytes; no tag told; PCR primers imply N-terminus MEGDE and C-terminus EHDGSNTA
# T1 sequence (A0A1Y1C7R6 1-1200): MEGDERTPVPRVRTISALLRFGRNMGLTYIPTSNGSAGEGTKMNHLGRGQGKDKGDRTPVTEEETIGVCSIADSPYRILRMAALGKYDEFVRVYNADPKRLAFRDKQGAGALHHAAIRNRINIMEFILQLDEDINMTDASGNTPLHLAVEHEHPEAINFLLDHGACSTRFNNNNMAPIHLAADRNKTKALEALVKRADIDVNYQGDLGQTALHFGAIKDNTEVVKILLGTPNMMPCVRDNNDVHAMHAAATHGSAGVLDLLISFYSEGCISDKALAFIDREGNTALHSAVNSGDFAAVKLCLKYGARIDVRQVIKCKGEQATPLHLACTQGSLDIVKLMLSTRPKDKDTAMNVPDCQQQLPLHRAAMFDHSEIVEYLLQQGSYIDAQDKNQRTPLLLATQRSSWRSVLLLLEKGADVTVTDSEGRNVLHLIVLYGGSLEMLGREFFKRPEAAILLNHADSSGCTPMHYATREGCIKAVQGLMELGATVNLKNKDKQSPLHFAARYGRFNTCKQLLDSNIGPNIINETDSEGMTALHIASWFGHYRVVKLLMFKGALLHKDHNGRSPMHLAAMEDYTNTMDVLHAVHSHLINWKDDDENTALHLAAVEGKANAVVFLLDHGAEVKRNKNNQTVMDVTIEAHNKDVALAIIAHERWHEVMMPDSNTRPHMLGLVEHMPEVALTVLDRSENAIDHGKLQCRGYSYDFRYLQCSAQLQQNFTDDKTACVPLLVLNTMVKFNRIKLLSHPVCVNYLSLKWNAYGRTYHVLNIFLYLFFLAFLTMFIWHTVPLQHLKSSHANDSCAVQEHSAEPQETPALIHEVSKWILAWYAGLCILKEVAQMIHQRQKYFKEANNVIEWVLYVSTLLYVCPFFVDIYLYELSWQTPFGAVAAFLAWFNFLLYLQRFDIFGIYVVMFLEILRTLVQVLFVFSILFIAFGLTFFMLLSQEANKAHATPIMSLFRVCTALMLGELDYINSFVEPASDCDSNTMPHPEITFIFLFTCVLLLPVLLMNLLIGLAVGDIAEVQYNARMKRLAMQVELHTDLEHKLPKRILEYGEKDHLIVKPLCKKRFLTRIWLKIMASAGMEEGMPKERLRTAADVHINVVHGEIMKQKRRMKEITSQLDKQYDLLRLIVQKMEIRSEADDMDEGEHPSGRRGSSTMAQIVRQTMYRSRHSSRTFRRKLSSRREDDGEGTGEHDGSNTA
# PpTRPA1 [2] = target: T1, PpTRPA1; experiment: as above; format: cell-based; conditions: agonist; ND96 bath, pH 7.4; -60 mV; n = 3; cinnamaldehyde concentration not in text
SMILES,pEC50 (PpTRPA1 [1]),"two-electrode voltage clamp, Xenopus laevis oocytes (PpTRPA1 [2])"
"C=CCN=C=S [AITC, allyl isothiocyanate]",3.93,
"O=CC=Cc1ccccc1 [CA, cinnamaldehyde]",,"Cinnamaldehyde (CA), another TRPA1 agonist, also evoked inward currents in X. laevis oocytes expressing PpTRPA1"

# Reference: publication PMC5438368, “Characterization of TRPA channels in the starfish Patiria pectinifera: involvement of thermally activated TRPA1 in thermotaxis in marine planktonic larvae” (Scientific Reports, 2017)
